Like-named read-outs stand apart in the source and are kept apart here.
Target: T1, HRP Type VIA (Armoracia rusticana, UniProt P00433)
T1 sequence (P00433 31-338): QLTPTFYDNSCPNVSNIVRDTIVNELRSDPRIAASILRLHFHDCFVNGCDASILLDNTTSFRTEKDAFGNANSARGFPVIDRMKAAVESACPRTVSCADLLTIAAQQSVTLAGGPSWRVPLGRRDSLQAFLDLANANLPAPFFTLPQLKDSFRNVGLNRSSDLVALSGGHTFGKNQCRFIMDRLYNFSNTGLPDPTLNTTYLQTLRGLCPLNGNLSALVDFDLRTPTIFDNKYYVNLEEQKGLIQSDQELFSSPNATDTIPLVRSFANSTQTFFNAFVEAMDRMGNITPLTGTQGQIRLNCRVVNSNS
Details: for (d) Signal: Background: ratio (control = with no enhancer): control value in brackets not reported

Compound	(a) Decrease in background (without HRP with test cpd.) (0.01 mg/ml, 10µl test compound)	(b) Increase in signal (with HRP, with test cpd.) (0.01 mg/ml, 10µl test compound)	(c) Increase in signal: background ratio (0.01 mg/ml, 10µl test compound)	(a) Decrease in background (without HRP with test cpd.) (0.1 mg/ml, 10µl test compound)	(b) Increase in signal (with HRP, with test cpd.) (0.1 mg/ml, 10µl test compound)	(a) Decrease in background (without HRP with test cpd.) (1 mg/ml, 10µl test compound)	(b) Increase in signal (with HRP, with test cpd.) (1 mg/ml, 10µl test compound)	(c) Increase in signal: background ratio (1 mg/ml, 10µl test compound)	(d) Signal: Background: ratio (control = with no enhancer) (0.01 mg/ml, 10µl test compound)	(d) Signal: Background: ratio (control = with no enhancer) (0.1 mg/ml, 10µl test compound)	(d) Signal: Background: ratio (control = with no enhancer) (1 mg/ml, 10µl test compound)	(c) Increase in signal: background ratio (0.1 mg/ml, 10µl test compound)	(a) Decrease in background (without HRP with test cpd.)	(b) Increase in signal (with HRP, with test cpd.)	(c) Increase in signal: background ratio
C[Si](C)(C)c1ccc(B(O)O)cc1 [Compound 1001, 4-(trimethylsilyl) benzeneboronic acid]													Y	N and Y	Y (key: Column (c) shows whether there was an increase in the signal:background ratio by over 25% of the control value (Y = yes; N = no)
OB(O)c1cccc2ccccc12 [Compound 1002, 1-naphthaleneboronic acid]	Y	N	N (N = no)	Y	N	Y	N	N (N = no)	2.5	3.4	0.7 (2.3)	Y (Column (c) shows whether there was an increase in the signal:background ratio by over 25% of the control value (Y = yes)			
COc1ccc(Br)cc1B(O)O [Compound 1003, 5-bromo-2-methoxybenzeneboronic acid]	Y	N	Y (Column (c) shows whether there was an increase in the signal:background ratio by over 25% of the control value (Y = yes)	Y	N	Y	N	N (N = no)	8.6	12.1	2.6 (2.3)	Y (Column (c) shows whether there was an increase in the signal:background ratio by over 25% of the control value (Y = yes)			
OB(O)c1ccccc1-c1ccccc1 [Compound 1004, 2-biphenylboronic acid]	Y	N	N (N = no)	Y	N	Y	N	N (N = no)	1.9	2.2	1.7 (2.3)	N (N = no)			
OB(O)c1cc(N=Nc2cccc(C(F)(F)F)c2)ccc1O [Compound 1005]	N	Y	Y (Column (c) shows whether there was an increase in the signal:background ratio by over 25% of the control value (Y = yes)	N	Y	Y	N	N (N = no)	2.7	2.9	2.4 (2.1)	Y (Column (c) shows whether there was an increase in the signal:background ratio by over 25% of the control value (Y = yes)			
OB(O)c1ccc2cc(O)ccc2c1 [Compound 1006, 6-hydroxy-2-naphthaleneboronic acid]	Y	N	Y (Column (c) shows whether there was an increase in the signal:background ratio by over 25% of the control value (Y = yes)	Y	N	Y	N	N (N = no)	5.8	1.5	0.3 (1.8)	N (N = no)			
OB(O)c1ccc(Oc2ccccc2)cc1 [Compound 1010, 4-(phenoxy)benzeneboronic acid]	Y	N	N (N = no)	Y	N	Y	N	Y (Column (c) shows whether there was an increase in the signal:background ratio by over 25% of the control value (Y = yes)	3.0	4.6	5.0 (2.5)	Y (Column (c) shows whether there was an increase in the signal:background ratio by over 25% of the control value (Y = yes)			
c1ccc(B2OCCCO2)cc1 [Compound 1012, 2-phenyl-1,3,2-dioxaborinane]	N	Y	N (N = no)	N	N	Y	N	Y (Column (c) shows whether there was an increase in the signal:background ratio by over 25% of the control value (Y = yes)	2.2	2.2	17.1 (2.5)	N (N = no)			
c1ccc([B-](c2ccccc2)(c2ccccc2)c2ccccc2)cc1 [Compound 1016, tetraphenylboron sodium]													Y	N	N (key: column (a) shows whether the test compound lowered the light output from the luminol-hydrogen peroxide solution (Y = yes; N = no)

Second part, led by results:

(a) Decrease in background (without HRP with test cpd.) (0.01 mg/ml, 10µl test compound)	(b) Increase in signal (with HRP, with test cpd.) (0.01 mg/ml, 10µl test compound)	(c) Increase in signal: background ratio (0.01 mg/ml, 10µl test compound)	(a) Decrease in background (without HRP with test cpd.) (0.1 mg/ml, 10µl test compound)	(b) Increase in signal (with HRP, with test cpd.) (0.1 mg/ml, 10µl test compound)	(a) Decrease in background (without HRP with test cpd.) (1 mg/ml, 10µl test compound)	(b) Increase in signal (with HRP, with test cpd.) (1 mg/ml, 10µl test compound)	(c) Increase in signal: background ratio (1 mg/ml, 10µl test compound)	(d) Signal: Background: ratio (control = with no enhancer) (0.01 mg/ml, 10µl test compound)	(d) Signal: Background: ratio (control = with no enhancer) (0.1 mg/ml, 10µl test compound)	(d) Signal: Background: ratio (control = with no enhancer) (1 mg/ml, 10µl test compound)	Compound	(c) Increase in signal: background ratio (0.1 mg/ml, 10µl test compound)	(a) Decrease in background (without HRP with test cpd.)	(b) Increase in signal (with HRP, with test cpd.)	(c) Increase in signal: background ratio
Y	N	N (N = no)	Y	N	Y	N	N (N = no)				2-benzimidazolylphenylboronic acid [Compound 1046]	N (N = no)			
Y	N	N (N = no)	Y	N	Y	N	N (N = no)	2.1	2.5	1.8 (2.1)	OB(O)c1cccc2c1Sc1ccccc1S2 [Compound 1007, 1-thianthreneboronic acid]	N (N = no)			
Y	N	N (N = no)	Y	N	Y	N	N (N = no)	1.6	1.5	1.3 (2.5)	OB(O)c1cccc2c1oc1ccccc12 [Compound 1008, 4-dibenzofuranboronic acid]	N (N = no)			
Y	N	N (N = no)	Y	N	Y	N	N (N = no)	1.9	2.5	0.6 (1.8)	Cc1ccccc1B(O)O [Compound 1009, 2-tolueneboronic acid]	Y (Column (c) shows whether there was an increase in the signal:background ratio by over 25% of the control value (Y = yes)			
Y	N	N (N = no)	Y	Y	Y	N	N (N = no)	1.8	2.5	1.8 (1.8)	OCC(CO)(CO)COB(O)O [Compound 1017, pentaerythritol borate]	Y (Column (c) shows whether there was an increase in the signal:background ratio by over 25% of the control value (Y = yes)			

— EP0626016B1, “[…] […]” (BRITISH TECHNOLOGY GROUP LIMITED, priority 1992, dated 1993)
